Key:
Type in all cases: physicochemical
[1] = lambda max (Vis) of activated photochromic test squares in a Varian Cary 3 uv-visible spectrophotometer; details: activated form in test square
Procedure: (§1) Testing was done with the photochromic compounds described in Examples 1 through 20 and Comparative Examples 1 through 3 in the following manner. A quantity of photochromic compound calculated to yield a 1.5×10^-3 molal solution was added to a flask containing 50 grams of a monomer blend of 4 parts ethoxylated bisphenol A dimethacrylate (BPA 2EO DMA), 1 part poly(ethylene glycol) 600 dimethacrylate, and 0.033 weight percent 2,2'-azobis(2-methyl propionitrile) (AIBN). The photochromic compound was dissolved into the monomer blend by stirring and gentle heating, if necessary. After a clear solution was obtained, it was poured into a flat sheet mold having the interior dimensions of 2.2 mm×6 inches (15.24 cm)×6 inches (15.24 cm). The mold was sealed and placed in a horizontal air flow, programmable oven programmed to increase the temperature from 40° C. to 95° C. over a 5 hour interval, hold the temperature at 95° C. for 3 hours, lower it to 60° C. over a 2 hour interval and then hold it at 60° C. for 16 hours. After the mold was opened, the polymer sheet was cut using a diamond blade saw into 2 inch (5.1 centimeters) test squares.
The lambda max (Vis) is the wavelength in the visible spectrum at which the maximum absorption of the activated (colored) form of the photochromic compound in a test square occurs. The lambda max (Vis) wavelengths reported in Table 1 were determined by testing the photochromic test square polymerizates of Part A in a Varian Cary 3 uv-visible spectrophotometer. The bleach rate (T 1/2) is the time interval in seconds for the absorbance of the activated form of the photochromic compound in the test squares to read one half the highest absorbance at room temperature (72° F., 22.2° C.) after removal of the source of activating light.
For each lambda max visible, the corresponding optical density (Δ OD/Min and Δ OD at saturation) for the desired compounds of the Examples and Comparative Examples are tabulated in Table 1 for the two bands (A and B) of peak absorption for each compound. Table 1 also includes the bleach rate (T 1/2) for each of the compounds as measured at band B. The ratings of the Relative Δ OD at Saturation Test for the bands A and B of each of the Examples and Comparative Examples are calculated as follows: Δ OD at saturation (Band A)/Δ OD at saturation (Band B)×100.

[2] = photochromic response of test squares on an optical bench (sensitivity, saturation optical density, bleach rate); details: for ΔOD @ Saturation (Band A) / ΔOD @ Saturation (Band B): UV exposure 15 minutes; for ΔOD @ Saturation (Band A) / Sensitivity ΔOD/MIN (Band A) / ΔOD @ Saturation (Band B) / Sensitivity ΔOD/MIN (Band B): 72° F. (22.2° C.), polymer test square; for Sensitivity ΔOD/MIN (Band A) / Sensitivity ΔOD/MIN (Band B): first five (5) seconds of UV exposure, expressed per minute; for Bleach Rate T 1/2: measured at band B, room temperature (72° F., 22.2° C.) after removal of activating light
Procedure: as §1
(§2) The photochromic test squares of Part A were tested for photochromic response rates on an optical bench. Prior to testing on the optical bench, the photochromic test squares were exposed to 365 nanometer ultraviolet light for about 15 minutes to activate the photochromic compounds and then placed into a 76° C. oven for about 15 minutes to bleach the photochromic compounds. The test squares were then cooled to room temperature, exposed to fluorescent room lighting for at least 2 hours and then kept covered for at least 2 hours prior to testing on an optical bench maintained at 72° F. (22.2° C.). The bench was fitted with a 250 watt Xenon arc lamp, a remote controlled shutter, a copper sulfate bath acting as a heat sink for the arc lamp, a Schott WG-320 nm cut-off filter which removes short wavelength radiation; neutral density filter(s) and a sample holder in which the square to be tested was inserted. The power output of the optical bench, i.e., the dosage of light that the sample lens would be exposed to, was calibrated with a photochromic test square used as a reference standard. […] The UV-A detector was placed into the sample holder and the light output was measured. Adjustments to the power output were made by increasing or decreasing the lamp wattage or by adding or removing neutral density filters in the light path.
A monitoring, collimated beam of light from a tungsten lamp was passed through the square at a small angle (approximately 30°) normal to the square. After passing through the square, the light from the tungsten lamp was directed to a detector through Spectral Energy Corp. GM-200 monochromator set at the previously determined visible lambda max of the photochromic compound being measured. The output signals from the detector were processed by a radiometer.
Change in optical density (ΔOD) was determined by inserting a test square in the bleached state into the sample holder, adjusting the transmittance scale to 100%, opening the shutter from the Xenon lamp to provide ultraviolet radiation to change the test square from the bleached state to an activated (i.e., darkened) state, measuring the transmittance in the activated state, and calculating the change in optical density according to the formula: ΔOD=log(100/% Ta), where % Ta is the percent transmittance in the activated state and the logarithm is to the base 10.
The ΔOD/Min, which represents the sensitivity of the photochromic compound's response to UV light, was measured over the first five (5) seconds of UV exposure, then expressed on a per minute basis. The saturation optical density (ΔOD@ Saturation) was taken under identical conditions as the ΔOD/Min, except UV exposure was continued for 15 minutes. […]

[3] = Relative ΔOD at Saturation Test; details: ΔOD at saturation (Band A)/ΔOD at saturation (Band B)×100
Description: In accordance with the present invention, it has now been discovered that certain novel indeno[2,1-f]naphtho[1,2-b]pyrans having two absorption bands in the activated (colored) state, an acceptable fade rate, high activated intensity, a high coloration rate and a rating of 80 or higher in the Relative ΔOD at Saturation Test may be prepared. The Relative ΔOD at Saturation Test is described in Example 21. The ratings of the test are defined herein as the result obtained when the optical density of band "A" is divided by the optical density of band "B" and multiplied by 100. It is believed that compounds having a rating of 80 or higher are most valuable for formulating neutral grays, greens and browns for commercial photochromic ophthalmic eyeware.
as §1, §2
Change in optical density (ΔOD) was determined by inserting a test square in the bleached state into the sample holder, adjusting the transmittance scale to 100%, opening the shutter from the Xenon lamp to provide ultraviolet radiation to change the test square from the bleached state to an activated (i.e., darkened) state, measuring the transmittance in the activated state, and calculating the change in optical density according to the formula: ΔOD=log(100/% Ta), where % Ta is the percent transmittance in the activated state and the logarithm is to the base 10. […]

Row | Structure (SMILES) | λ MAX Vis (Band A) [1] [nm] | λ MAX Vis (Band B) [1] [nm] | ΔOD @ Saturation (Band A) [2] | Sensitivity ΔOD/MIN (Band A) [2] | ΔOD @ Saturation (Band B) [2] | Sensitivity ΔOD/MIN (Band B) [2] | Bleach Rate T 1/2 [2] [min] | Relative ΔOD at Saturation (rating) [3]
1 | CCC1(O)c2ccccc2-c2c1c1c(c3ccccc23)OC(c2ccc(OC)cc2)(c2ccc(OC)cc2)C=C1 (stereo not shown) [Comp. Ex. 1, 3,3-di(4-methoxyphenyl)-13-hydroxy-13-ethyl-3H-13H-indeno[2,1-f]naphtho[1,2-b]pyran, reference compound] | 437 | 562 | 0.16 | 0.21 ΔOD/MIN | 0.27 | 0.29 ΔOD/MIN | 0.783 | 59
2 | CCC1(O)c2cc(OC)ccc2-c2c1c1c(c3cc(OC)ccc23)OC(c2ccc(OC)cc2)(c2ccc(OC)cc2)C=C1 (stereo not shown) [Comp. Ex. 2, 3,3-di(4-methoxyphenyl)-6,11-dimethoxy-13-hydroxy-13-ethyl-3H-13H-indeno[2,1-f]naphtho[1,2-b]pyran, reference compound] | 499 | 607 | 0.36 | 0.22 ΔOD/MIN | 0.51 | 0.32 ΔOD/MIN | 2.17 | 70
3 | CCC1(O)c2cc(OC)c(OC)cc2-c2c1c1c(c3ccccc23)OC(c2ccc(OC)cc2)(c2ccc(OC)cc2)C=C1 (stereo not shown) [Comp. Ex. 3, 3,3-di(4-methoxyphenyl)-10,11-dimethoxy-13-hydroxy-13-ethyl-3H-13H-indeno[2,1-f]naphtho[1,2-b]pyran, reference compound] | 445 | 600 | 0.34 | 0.32 ΔOD/MIN | 0.48 | 0.48 ΔOD/MIN | 1.27 | 71
4 | COc1ccc(C2(c3ccc(OC)cc3)C=Cc3c4c(c5cc(OC)c(OC)cc5c3O2)-c2cc(OC)c(OC)cc2C4(C)C)cc1 [Example 1, 3,3-di(4-methoxyphenyl)-6,7,10,11-tetramethoxy-13,13-dimethyl-3H,13H-indeno[2,1-f]naphtho[1,2-b]pyran] | 445 | 611 | 0.99 | 0.33 ΔOD/MIN | 0.79 | 0.24 ΔOD/MIN | 8.77 | 125
5 | COc1cc2c(cc1OC)C(C)(C)c1c3c(c4cc(OC)c(OC)cc4c1-2)OC(c1ccccc1)(c1ccc(N2CCOCC2)cc1)C=C3 (stereo not shown) [Example 2, 3-phenyl-3-(4-morpholinophenyl)-6,7,10,11-tetramethoxy-13,13-dimethyl-3H,13H-indeno[2,1-f]naphtho[1,2-b]pyran] | 485 | 618 | 1.10 | 0.32 ΔOD/MIN | 1.07 | 0.29 ΔOD/MIN | 14.2 | 103
6 | CCC1(O)c2cc(OC)c(OC)cc2-c2c1c1c(c3cc(OC)c(OC)cc23)OC(c2ccc(OC)cc2)(c2ccc(OC)cc2)C=C1 (stereo not shown) [Example 3, 3,3-di(4-methoxyphenyl)-6,7,10,11-tetramethoxy-13-hydroxy-13-ethyl-3H,13H-indeno[2,1-f]naphtho[1,2-b]pyran] | 460 | 623 | 0.62 | 0.34 ΔOD/MIN | 0.41 | 0.24 ΔOD/MIN | 2.58 | 151
7 | COc1ccc(C2(c3ccc(OC)cc3)C=Cc3c4c(c5cc(OC)c(OC)cc5c3O2)-c2ccccc2C4(C)C)cc1 [Example 4, 3,3-di(4-methoxyphenyl)-6,7-dimethoxy-13,13-dimethyl-3H-13H-indeno[2,1-f]naphtho[1,2-b]pyran] | 455 | 576 | 1.11 | 0.39 ΔOD/MIN | 0.71 | 0.22 ΔOD/MIN | 4.45 | 156
8 | CCC1(O)c2ccccc2-c2c1c1c(c3cc(OC)c(OC)cc23)OC(c2ccc(OC)cc2)(c2ccc(OC)cc2)C=C1 (stereo not shown) [Example 5, 3,3-di(4-methoxyphenyl)-6,7-dimethoxy-13-hydroxy-13-ethyl-3H-13H-indeno[2,1-f]naphtho[1,2-b]pyran] | 458 | 584 | 0.42 | 0.26 ΔOD/MIN | 0.27 | 0.19 ΔOD/MIN | 1.45 | 155

Reference: patent US6296785A, “Indeno-fused photochromic naphthopyrans” (PPG Industries Ohio, Inc., priority 2000, dated 2001)
